Patent publication US11091501B2, “Heterocyclic compounds as RSV inhibitors” (Enanta Pharmaceuticals, Inc., priority 2017, dated 2021)

Test system: Human RSV-A (“Long” strain)
Experiment: RSV in vitro cytoprotection assay (CPE, ATPlite) in HEp-2 cells
Format: cell-based
Details: human respiratory syncytial virus, 96 h; HEp-2 cells, 4-day incubation, ATPlite readout; read-out: Human RSV-A (“Long” strain) EC50
Procedure, shortened: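 HEp-2 cells (8,000/well) given 2-fold serial compound dilutions in duplicate, then infected with sucrose-stabilised RSV-A Long stock. After 4 days, cell viability read by ATPlite luminescence, with a parallel uninfected plate for cytotoxicity. EC50 binned A<0.01 μM, B 0.01-0.05 μM, C>0.05 μM.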

| EC50 [nM] | Compound |
| --- | --- |
| 10 to 50 | Cc1ccc(C(=O)Nc2ccc(C(=O)N3CCc4cc(NC(=O)OC5CCC5)sc4-c4ccccc43)cc2)c(N2CC3(CCOCC3)C2)n1 [Example 298] |
| 10 to 50 | Cc1ccc(C(=O)Nc2ccc(C(=O)N3CCc4cc(NC(=O)OC5CCCC5)sc4-c4ccccc43)cc2)c(N2CC3(CCOCC3)C2)n1 [Example 299] |
| > 50 | Cc1ccc(C(=O)Nc2ccc(C(=O)N3CCc4cc(NC(=O)OC5CCCCC5)sc4-c4ccccc43)cc2)c(N2CC3(CCOCC3)C2)n1 [Example 300] |
| 10 to 50 | Cc1ccc(C(=O)Nc2ccc(C(=O)N3CCc4cc(NC(=O)OCC(F)(F)F)sc4-c4ccccc43)cc2)c(N2CC3(CCOCC3)C2)n1 [Example 301] |
| 10 to 50 | Cc1ccc(C(=O)Nc2ccc(C(=O)N3CCc4c(sc(NC(=O)c5c(F)cccc5F)c4F)-c4ccccc43)cc2)c(N2CC3(CCOCC3)C2)n1 [Example 303] |
| < 10 | Cc1cnc(N2CC3(CCOCC3)C2)c(C(=O)Nc2ccc(C(=O)N3CCc4c(sc(NC(=O)c5c(F)cccc5F)c4F)-c4ccccc43)cc2)c1 [Example 304] |
| < 10 | Cc1cnc(N2CC3(CCOCC3)C2)c(C(=O)Nc2ccc(C(=O)N3CCc4c(sc(NC(=O)c5c(F)cccc5Cl)c4F)-c4ccccc43)cc2)c1 [Example 305] |
| < 10 | Cc1cnc(N2CC3(CCOCC3)C2)c(C(=O)Nc2ccc(C(=O)N3CCc4c(sc(NC(=O)c5c(F)cncc5F)c4F)-c4ccccc43)cc2)c1 [Example 306] |
| < 10 | Cc1cnc(N2CC3(CCOCC3)C2)c(C(=O)Nc2ccc(C(=O)N3CCc4c(sc(NC(=O)c5ccccc5F)c4F)-c4ccccc43)cc2)c1 [Example 307] |
| 10 to 50 | Cc1ccc(C(=O)Nc2ccc(C(=O)N3CCc4c(sc(NC(=O)c5c(C)cccc5F)c4F)-c4ccccc43)cc2)c(N2CC3(CCOCC3)C2)n1 [Example 308] |
| 10 to 50 | Cc1ccc(C(=O)Nc2ccc(C(=O)N3CCc4c(sc(NC(=O)c5c(F)cccc5Cl)c4F)-c4ccccc43)cc2)c(N2CC3(CCOCC3)C2)n1 [Example 309] |
| 10 to 50 | Cc1ccc(C(=O)Nc2ccc(C(=O)N3CCc4c(sc(NC(=O)c5c(Cl)cccc5Cl)c4F)-c4ccccc43)cc2)c(N2CC3(CCOCC3)C2)n1 [Example 310] |
| 10 to 50 | Cc1ccc(C(=O)Nc2ccc(C(=O)N3CCc4c(sc(NC(=O)c5ccccc5F)c4F)-c4ccccc43)cc2)c(N2CC3(CCOCC3)C2)n1 [Example 311] |

Same assay, conditions: human respiratory syncytial virus, HEp-2, 96 h, read-out: Human RSV-A (“Long” strain) EC50

| Compound | EC50 [nM] |
| --- | --- |
| Cc1ccc(C(=O)Nc2ccc(C(=O)N3CCc4cc(NC(=O)Oc5ccccc5)sc4-c4ccccc43)cc2)c(N2CC3(CCOCC3)C2)n1 [Example 302] | > 50 |

Same assay, conditions: human respiratory syncytial virus, HEp-2; control compound of the RSV assay; read-out: EC50

| Compound | EC50 [nM] |
| --- | --- |
| O=C(Nc1ccccc1F)N[C@H]1N=C(c2ccccc2)c2ccccc2NC1=O [RSV-604, reference compound] | ~2400 |
